Measured values: publication PMC4616163, “Inverse relationship between chitobiase and transglycosylation activities of chitinase-D from Serratia proteamaculans revealed by mutational and biophysical analyses” (Scientific Reports, 2015)
Where “and” joins values, the source holds several entries; their conditions need not be identical. Equal values may be shown once. Read-outs that look alike come from different tables or passages of the source.

Columns and labels:
SmChiB-E144Q = experiment: Literature Kd values from isothermal titration calorimetry, quoted for comparison; conditions not given in this article.; type: binding; conditions: read-out: Kd values in μM (SmChiB-E144Q, OfChtI-E148Q, BcChiA-E61A); cited from earlier work
From the text: (§1) So far three chitinases, two belonging to family GH18 (ChiB from S. marcescens−SmChiB and a chitinase from the insect Ostrinia furnacalis−OfChtI) and one belonging to family GH19 (ChiA from moss species, Bryum coronatum−BcChiA) were studied in great detail for their binding properties using ITC[27][28][29]. […] The high binding affinities of the mutant E153A even for the lower chain CHOS like DP2 and DP3, indicates the probability of these CHOS getting transglycosylated at the substrate-binding cleft. […] Therefore, the exceptionally high binding affinities of the mutant E153A for CHOS with DP2−6 compared to any other GH18 or GH19 chitinases[27][28][29] (Table 3) might be crucial to facilitate the unprecedented hyper-TG activity by SpChiD.

BcChiA-E61A = experiment: as above; type: binding; conditions: read-out: Kd values in μM (SmChiB-E144Q, OfChtI-E148Q, BcChiA-E61A); cited from earlier work
From the text: as §1

SpChiD mutant E153A = experiment: DSC ligand-induced thermal stability of E153A with CHOS DP2–6; type: binding, Serratia proteamaculans; conditions: for Tm Transition-I / Tm Transition-II: DSC, pH 8.0; for Tm Transition-I: E153A 0.5 mg/mL alone or pre-incubated 1 h with 1 mM ligand; for Tm Transition-II: E153A alone or pre-incubated 1 h with 1 mM ligand; for increment of Tm1 over E153A alone / increment of Tm2 over E153A alone: [Tm of E153A + (DP)n] − Tm of E153A alone; for increment of Tm1 over E153A alone: first transition; for increment of Tm2 over E153A alone: second transition
Procedure: DSC measurements were carried out on a MicroCal VP-DSC (MicroCal LLC, Northampton, MA, USA). SpChiD and mutant E153A were dialyzed against 20 mM potassium phosphate buffer, pH 8.0. The dialysate was used as the reference. Protein samples (0.5 mg/mL) were heated from 10–70 °C at a scan rate of 30°/h to assess the effect of ligand binding on thermal unfolding. Mutant E153A was pre-incubated for 1 h with 1 mM of each ligand (DP2–6) before scanning. Sample and reference solutions were degassed prior to scanning to eliminate bubbling effects. Baseline reproducibility was verified by multiple scans, and the reversibility of protein unfolding was monitored by scanning the sample twice. Buffer scans were subtracted from thermograms obtained in the presence or absence of CHOS before further analysis. Absolute and excess heat capacities were analyzed using a non-two-state fit of the thermogram in Origin v7.0.

SpChiD-E153A [1] = target: SpChiD-E153A (Serratia proteamaculans, UniProt A8GFD6, E159A); experiment: ITC binding of CHOS to E153A; conditions: ITC
Procedure: (§2) Calorimetric titrations were carried out at 13 °C with DP2–4 CHOS, and at 25 °C with DP5 and DP6 CHOS, using a MicroCal ITC200 System (Microcal, Northampton, MA, USA). Mutant E153A was extensively dialyzed against 20 mM potassium phosphate (pH 8.0) and the dialysate was used to make CHOS solutions to minimize the heat of dilution during titration. Protein solutions were passed through 0.2-μm filters and thoroughly degassed prior to use. […] Successive injections at 225-s intervals ensured that equilibrium was achieved before adding the next aliquot. The sample in the calorimeter cell was stirred at 260 rpm during titration. Blank titrations were also performed by injecting ligand alone into the buffer solution, which yielded insignificant heat of dilution values. The binding isotherms were analyzed using MicroCal Origin v7.0. Thermodynamic parameters such as binding stoichiometry (n), change in enthalpy (ΔH) and association constant (Ka) were obtained by nonlinear least-squares fitting of experimental data using the one-set-of-sites binding model. Free energy of binding (ΔG) and change in entropy (ΔS) were deduced from the Ka and ΔH values using the standard thermodynamic equation

SpChiD-E153A [2] = experiment: ITC binding of CHOS to E153A; parameters: species or system Serratia proteamaculans; conditions: for binding affinity to E153A relative to the same ligand on SmChiB: times higher than SmChiB
Procedure: as §2

OfChtI-E148Q = conditions: catalytically-inactive mutant, cited from earlier work

SpChiD-E153A (Serratia proteamaculans, UniProt A8GFD6, E159A), sequence (A8GFD6 entry or part of it E159A): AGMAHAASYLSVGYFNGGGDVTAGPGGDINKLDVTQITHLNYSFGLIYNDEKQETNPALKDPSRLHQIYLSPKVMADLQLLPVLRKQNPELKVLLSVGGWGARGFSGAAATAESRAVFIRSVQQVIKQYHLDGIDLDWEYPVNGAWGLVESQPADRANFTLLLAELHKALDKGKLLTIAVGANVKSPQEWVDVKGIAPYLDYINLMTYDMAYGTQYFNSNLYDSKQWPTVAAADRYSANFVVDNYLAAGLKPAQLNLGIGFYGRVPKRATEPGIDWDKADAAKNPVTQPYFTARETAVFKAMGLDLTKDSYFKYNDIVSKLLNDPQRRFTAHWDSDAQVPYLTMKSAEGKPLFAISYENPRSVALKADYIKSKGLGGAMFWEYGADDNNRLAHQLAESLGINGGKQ

Row | Compound | Kd (SmChiB-E144Q) | Kd (BcChiA-E61A) | Tm Transition-I (SpChiD mutant E153A) | Tm Transition-II (SpChiD mutant E153A) | n (binding stoichiometry) (SpChiD-E153A [1]; 13 °C) | ΔH° (SpChiD-E153A [1]; 13 °C) | ΔS° (SpChiD-E153A [1]; 13 °C) | −TΔS (SpChiD-E153A [1]; 13 °C) | −ΔG° (SpChiD-E153A [1]; 13 °C) | binding affinity to E153A relative to the same ligand on SmChiB (SpChiD-E153A [2]) | Kd (OfChtI-E148Q; read-out: Kd to OfChtI-E148Q) | other results
1 | CC(=O)N[C@H]1[C@H](O[C@H]2[C@H](O)[C@@H](NC(C)=O)C(O)O[C@@H]2CO)O[C@H](CO)[C@@H](O[C@@H]2O[C@H](CO)[C@@H](O[C@@H]3O[C@H](CO)[C@@H](O)[C@H](O)[C@H]3NC(C)=O)[C@H](O)[C@H]2NC(C)=O)[C@@H]1O (some centres unmarked) [DP4, (GlcNAc)4, tetra-N-acetylchitotetraose] | 2.7 ± 0.19 µM | 16 ± 1 µM | – | – | – | – | – | – | – | – | – | –
2 | CC(=O)N[C@H]1[C@H](O[C@H]2[C@H](O)[C@@H](NC(C)=O)C(O)O[C@@H]2CO)O[C@H](CO)[C@@H](O[C@@H]2O[C@H](CO)[C@@H](O)[C@H](O)[C@H]2NC(C)=O)[C@@H]1O (some centres unmarked) [DP3] | – | – | 50.20 ± 0.47 °C | 54.30 ± 0.043 °C | 0.84 and 0.839 ± 0.0641 | -1.837 ± 0.186 kcal/mol | 14.9 cal.mol^−1.deg^−1 | 4.26 kcal/mol | 6.1 kcal/mol | 1,515 fold | – | Kd (OfChtI-E148Q; read-out: Kd1 to OfChtI-E148Q): 76900 nM; Kd (OfChtI-E148Q; read-out: Kd2 to OfChtI-E148Q): 284000 nM
3 | CC(=O)N[C@H]1[C@H](O[C@H]2[C@H](O)[C@@H](NC(C)=O)[C@H](O[C@H]3[C@H](O)[C@@H](NC(C)=O)C(O)O[C@@H]3CO)O[C@@H]2CO)O[C@H](CO)[C@@H](O[C@@H]2O[C@H](CO)[C@@H](O[C@@H]3O[C@H](CO)[C@@H](O)[C@H](O)[C@H]3NC(C)=O)[C@H](O)[C@H]2NC(C)=O)[C@@H]1O (some centres unmarked) [DP5, (GlcNAc)5, penta-N-acetylchitopentaose] | 0.67 ± 0.2 µM | 1.8 ± 0.3 µM | – | – | – | – | – | – | – | – | – | –
4 | CC(=O)N[C@H]1[C@H](O[C@H]2[C@H](O)[C@@H](NC(C)=O)C(O)O[C@@H]2CO)O[C@H](CO)[C@@H](O)[C@@H]1O (some centres unmarked) [DP2] | – | – | 48.78 ± 0.03 °C | 53.16 ± 0.096 °C | 3.04 and 3.04 ± 0.307 | -0.1506 ± 0.0261 kcal/mol | 20.6 cal.mol^−1.deg^−1 | 5.89 kcal/mol | 6.04 kcal/mol | – | – | binding affinity of DP2 to SpChiD relative to DP5 binding to SmChiB (SpChiD-E153A [2]; compared with DP5 on SmChiB (Kd = 0.67 μM)): ~3 times
5 | CC(=O)N[C@H]1[C@H](O[C@H]2[C@H](O)[C@@H](NC(C)=O)C(O)O[C@@H]2CO)O[C@H](CO)[C@@H](O[C@@H]2O[C@H](CO)[C@@H](O)[C@H](O)[C@H]2NC(C)=O)[C@@H]1O (some centres unmarked) [DP3, (GlcNAc)3, N,N',N''-triacetylchitotriose] | 327 ± 22 µM | 230 ± 20 µM | – | – | – | – | – | – | – | – | – | –
6 | CC(=O)N[C@H]1[C@H](O[C@H]2[C@H](O)[C@@H](NC(C)=O)[C@H](O[C@H]3[C@H](O)[C@@H](NC(C)=O)C(O)O[C@@H]3CO)O[C@@H]2CO)O[C@H](CO)[C@@H](O[C@@H]2O[C@H](CO)[C@@H](O[C@@H]3O[C@H](CO)[C@@H](O)[C@H](O)[C@H]3NC(C)=O)[C@H](O)[C@H]2NC(C)=O)[C@@H]1O (some centres unmarked) [DP5] | – | – | 56.09 ± 0.30 °C | 59.30 ± 0.063 °C | – | – | – | – | – | 52 fold | 2000 ± 200 nM | increment of Tm1 over E153A alone (SpChiD mutant E153A): 10.7 °C; increment of Tm2 over E153A alone (SpChiD mutant E153A): 11.2 °C; n (binding stoichiometry) (SpChiD-E153A [1]; 25 °C): 1.09 and 1.09 ± 0.00966; ΔH° (SpChiD-E153A [1]; 25 °C): 3.530 ± 0.0468 kcal/mol; ΔS° (SpChiD-E153A [1]; 25 °C): 38.7 cal.mol^−1.deg^−1; −TΔS (SpChiD-E153A [1]; 25 °C): 11.53 kcal/mol; −ΔG° (SpChiD-E153A [1]; 25 °C): 8 kcal/mol
7 | CC(=O)N[C@H]1[C@H](O[C@H]2[C@H](O)[C@@H](NC(C)=O)C(O)O[C@@H]2CO)O[C@H](CO)[C@@H](O[C@@H]2O[C@H](CO)[C@@H](O[C@@H]3O[C@H](CO)[C@@H](O)[C@H](O)[C@H]3NC(C)=O)[C@H](O)[C@H]2NC(C)=O)[C@@H]1O (some centres unmarked) [DP4] | – | – | 48.88 ± 0.52 °C | 54.10 ± 0.032 °C | 1.69 and 1.69 ± 0.071 | 1.148 ± 0.0675 kcal/mol | 27 cal.mol^−1.deg^−1 | 7.72 kcal/mol | 6.6 kcal/mol | – | 11300 ± 1500 nM | –
8 | CC(=O)N[C@H]1[C@H](O[C@H]2[C@H](O)[C@@H](NC(C)=O)[C@H](O[C@H]3[C@H](O)[C@@H](NC(C)=O)C(O)O[C@@H]3CO)O[C@@H]2CO)O[C@H](CO)[C@@H](O[C@@H]2O[C@H](CO)[C@@H](O[C@@H]3O[C@H](CO)[C@@H](O[C@@H]4O[C@H](CO)[C@@H](O)[C@H](O)[C@H]4NC(C)=O)[C@H](O)[C@H]3NC(C)=O)[C@H](O)[C@H]2NC(C)=O)[C@@H]1O (some centres unmarked) [DP6, chitohexaose] | – | – | 58.15 ± 0.19 °C | 60.49 ± 0.055 °C | – | – | – | – | – | 26 fold | 480 ± 90 nM | increment of Tm1 over E153A alone (SpChiD mutant E153A): 12.8 °C; increment of Tm2 over E153A alone (SpChiD mutant E153A): 12.4 °C; n (binding stoichiometry) (SpChiD-E153A [1]; 25 °C): 1.58 and 1.58 ± 0.00962; ΔH° (SpChiD-E153A [1]; 25 °C): 2.281 ± 0.0249 kcal/mol; ΔS° (SpChiD-E153A [1]; 25 °C): 36.3 cal.mol^−1.deg^−1; −TΔS (SpChiD-E153A [1]; 25 °C): 10.81 kcal/mol; −ΔG° (SpChiD-E153A [1]; 25 °C): 8.53 kcal/mol
9 | CC(=O)N[C@H]1[C@H](O[C@H]2[C@H](O)[C@@H](NC(C)=O)[C@H](O[C@H]3[C@H](O)[C@@H](NC(C)=O)C(O)O[C@@H]3CO)O[C@@H]2CO)O[C@H](CO)[C@@H](O[C@@H]2O[C@H](CO)[C@@H](O[C@@H]3O[C@H](CO)[C@@H](O[C@@H]4O[C@H](CO)[C@@H](O)[C@H](O)[C@H]4NC(C)=O)[C@H](O)[C@H]3NC(C)=O)[C@H](O)[C@H]2NC(C)=O)[C@@H]1O (some centres unmarked) [DP6, (GlcNAc)6, hexa-N-acetylchitohexaose (chitohexaose)] | 0.13 ± 0.09 µM | 0.77 ± 0.06 µM | – | – | – | – | – | – | – | – | – | –
